For one assay, the system named is HeLa pEGFP-CK2α cells. In words: Subcellular localization of EGFP-CK2α, cell imaging. Type of assay: cell-based. Particulars: 12 h.
In assay [1] the test system is panel of 54 kinases. Particulars: overall selectivity; cited from earlier work.
The target of a further assay is CK2α (Homo sapiens, UniProt P68400). Particulars: previous hit compounds included for comparison; cited from earlier work.
The target of a further assay is T1, human CK2α1−335 (Homo sapiens, UniProt P68400).
T1 sequence (P68400 1-335): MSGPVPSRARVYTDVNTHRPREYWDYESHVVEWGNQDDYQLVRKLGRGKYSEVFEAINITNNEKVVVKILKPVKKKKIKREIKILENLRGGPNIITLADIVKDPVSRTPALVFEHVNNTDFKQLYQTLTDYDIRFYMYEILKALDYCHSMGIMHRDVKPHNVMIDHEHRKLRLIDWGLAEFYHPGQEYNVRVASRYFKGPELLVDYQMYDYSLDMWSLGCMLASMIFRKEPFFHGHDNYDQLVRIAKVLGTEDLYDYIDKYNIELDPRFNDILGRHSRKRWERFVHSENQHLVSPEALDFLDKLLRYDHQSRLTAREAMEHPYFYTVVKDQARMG
The experiment in a line: Isothermal titration calorimetry. Type of assay: binding. Particulars: ITC.

The target of assay [2] is CK2α2β2 (peptide substrate) (Homo sapiens, UniProt P68400). In words: Radiometric kinase assay with CK2α2β2, peptide substrate. Type of assay: biochemical. Particulars: peptide 29 and peptide M substrates (Figure 2B).
Another assay has as its target Dyrk1A (Homo sapiens, UniProt Q13627). In words: Kinase selectivity panel. Particulars: 5 μM 27.
Assay [3] relates to panel of 54 kinases. In words: Overall selectivity in kinase panel. Particulars: 5 μM.

Molecules are shown by their SMILES. Read-outs that look alike come from different tables or passages of the source.

The source of these data is paper PMC7579840 (Journal of medicinal chemistry, 2019).

Sequence of CK2α2β2 (peptide substrate) (P68400 whole entry): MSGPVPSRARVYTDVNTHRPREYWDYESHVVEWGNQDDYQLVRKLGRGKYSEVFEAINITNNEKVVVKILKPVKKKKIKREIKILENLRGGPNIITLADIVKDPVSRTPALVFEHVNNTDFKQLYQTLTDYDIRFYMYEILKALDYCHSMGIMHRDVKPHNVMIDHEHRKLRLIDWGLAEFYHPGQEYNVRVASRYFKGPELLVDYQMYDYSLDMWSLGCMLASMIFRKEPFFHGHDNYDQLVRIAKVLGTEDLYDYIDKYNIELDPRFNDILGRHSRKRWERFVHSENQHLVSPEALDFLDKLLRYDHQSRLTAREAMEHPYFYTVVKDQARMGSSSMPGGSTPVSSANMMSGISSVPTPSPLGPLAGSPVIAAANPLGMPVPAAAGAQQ
Sequence of CK2α2β2 (peptide substrate) (P67870 whole entry partner): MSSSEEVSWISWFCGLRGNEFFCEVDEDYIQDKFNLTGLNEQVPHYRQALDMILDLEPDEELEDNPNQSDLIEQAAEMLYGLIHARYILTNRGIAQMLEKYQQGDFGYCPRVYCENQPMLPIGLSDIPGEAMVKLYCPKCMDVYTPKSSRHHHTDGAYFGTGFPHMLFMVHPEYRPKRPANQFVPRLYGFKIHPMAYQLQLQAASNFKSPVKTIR
Sequence of CK2α (P68400 whole entry): as the sequence (P68400 whole entry) above

Turning to `O=C(O)c1ccc2c(c1)nc(Nc1cccc(Cl)c1)c1ccncc12` [CX-4945, 5-(3-chlorophenylamino)benzo[c][2,6]naphthyridine-8-carboxylic acid, reference compound], the “subcellular localization of EGFP-CK2α” value in the assay on HeLa pEGFP-CK2α cells (8 μM) was “significant translocation of EGFP-CK2α from the nucleoli to the nuclear matrix and the cytoplasm compartments”. For the same molecule, the Gini coefficient with panel of 54 kinases [1] was 0.67.
In the case of `O=C(O)c1cccc(Nc2nc(-c3cccc([N+](=O)[O-])c3)cs2)c1` [compound 1, 3-((4-(3-nitrophenyl)thiazol-2-yl)amino)benzoic acid], at CK2α, the IC50 is 30 µM.
For `O=C(O)c1ccc(Nc2nc(-c3ccc4ccccc4c3)cs2)cc1O` [compound 27, 2-Hydroxy-4-((4-(naphthalen-2-yl)thiazol-2-yl)amino)benzoic acid], the TΔS at human CK2α1−335 is on record as 2.53 ± 0.29 kcal/mol. Further, the “inhibition of holoenzyme complex compared with CK2α” value in assay [2] is listed as “same potency”. In addition, the “subcellular localization of EGFP-CK2α” value in the assay on HeLa pEGFP-CK2α cells (15 μM) is reported as “nucleolar localization pattern of EGFP-CK2α was mostly retained”. For the same molecule, the “inhibition of Dyrk1A” value against Dyrk1A is listed as “only weakly inhibited”. In addition, the Gini coefficient in the assay with panel of 54 kinases [3] turned out to be 0.78.
